Tests used:
[1] = test system: HL-60; assay: NCI 60 cell line panel: HL-60; type: cell-based, human; conditions: Leukemia, TP53 null/mutant
Description: (§1) Details of the NCI 60 One Dose Screen are well known and available online.

[2] = test system: HCT-15; assay: NCI 60 cell line panel: HCT-15; type: cell-based, human; conditions: Colon cancer, TP53 null/mutant
Description: as §1

[3] = test system: UACC-62; assay: NCI 60 cell line panel: UACC-62; type: cell-based, human; conditions: Melanoma, TP53 wild type
Description: as §1

[4] = test system: OVCAR-4; assay: NCI 60 cell line panel: OVCAR-4; type: cell-based, human; conditions: Ovarian cancer, TP53 null/mutant
Description: as §1

[5] = test system: total DNMT; assay: Total DNMT inhibition, colorimetric assay in HCT-116 cells; type: cell-based, human; conditions: 10 µM, 24 h
Protocol: Total DNMT activity was measured in the colon cancer cell line HCT-116. The assay was performed using the EpiQuick^TM DNA Methyltransferase Activity/Inhibition Assay Kit (Epigentek, Brooklyn, NY, USA). […] Assays were performed three times in triplicate.

[6] = test system: PC-3; assay: NCI 60 cell line panel: PC-3; type: cell-based, human; conditions: Prostate cancer, TP53 null/mutant
Description: as §1

[7] = test system: A549/ATCC; assay: NCI 60 cell line panel: A549/ATCC; type: cell-based, human; conditions: NSCL, TP53 wild type
Description: as §1

[8] = test system: SF-268; assay: NCI 60 cell line panel: SF-268; type: cell-based, human; conditions: CNS cancer, TP53 null/mutant
Description: as §1

[9] = test system: NCI-H522; assay: NCI 60 cell line panel: NCI-H522; type: cell-based, human; conditions: NSCL, TP53 null/mutant
Description: as §1

[10] = test system: TP53 WT colon cancer cell line Ls174T; assay: In vitro growth inhibition (CellTiter-Glo), Ls174T; type: cell-based; conditions: Homo sapiens, 72 h exposure
Protocol: (§2) Further testing was performed in colon cancer cell lines.
(§3) Cells were grown in an appropriate medium for the cell line of interest; 96 well plates of each cell line were seeded with 5000 cells per well and left overnight. Drug exposed cells were incubated at 37 °C for 72 h. At the end of the 72 h exposure period, plates were removed for the CellTiter-Glo® assay. Luminescence was recorded on a Synergy 4.0. Assays were performed in triplicate.

[11] = test system: ACHN; assay: NCI 60 cell line panel: ACHN; type: cell-based, human; conditions: Renal cancer, TP53 wild type
Description: as §1

[12] = test system: human colon cancer cell line HCT-116; assay: In vitro growth inhibition (CellTiter-Glo), HCT-116; type: cell-based; conditions: HCT 116 TP53(-/-), read-out: GI50 (concentration of drug that inhibited 50% of cell growth), 72 h exposure
Protocol: as §3

[13] = test system: SN12C; assay: NCI 60 cell line panel: SN12C; type: cell-based, human; conditions: Renal cancer, TP53 null/mutant
Description: as §1

[14] = test system: IGROV-1; assay: NCI 60 cell line panel: IGROV-1; type: cell-based, human; conditions: Ovarian cancer, TP53 null/mutant
Description: as §1

[15] = test system: NCI-H226; assay: NCI 60 cell line panel: NCI-H226; type: cell-based, human; conditions: NSCL, TP53 null/mutant
Description: as §1

[16] = test system: KM12; assay: NCI 60 cell line panel: KM12; type: cell-based, human; conditions: Colon cancer, TP53 null/mutant
Description: as §1

[17] = test system: NCI-H460; assay: NCI 60 cell line panel: NCI-H460; type: cell-based, human; conditions: NSCL, TP53 wild type
Description: as §1

[18] = test system: TP53 WT colon cancer cell line LoVo; assay: In vitro growth inhibition (CellTiter-Glo), LoVo; type: cell-based; conditions: Homo sapiens, 72 h exposure
Protocol: as §2, §3

[19] = test system: EKVX; assay: NCI 60 cell line panel: EKVX; type: cell-based, human; conditions: NSCL, TP53 null/mutant
Description: as §1

[20] = test system: SW-620; assay: NCI 60 cell line panel: SW-620; type: cell-based, human; conditions: Colon cancer, TP53 null/mutant
Description: as §1

[21] = test system: SNB-75; assay: NCI 60 cell line panel: SNB-75; type: cell-based, human; conditions: CNS cancer, TP53 null/mutant
Description: as §1

[22] = test system: MALME-3M; assay: NCI 60 cell line panel: MALME-3M; type: cell-based, human; conditions: Melanoma, TP53 wild type
Description: as §1

[23] = test system: BT-549; assay: NCI 60 cell line panel: BT-549; type: cell-based, human; conditions: Breast cancer, TP53 null/mutant
Description: as §1

Nc1ncn([C@@H]2O[C@H](CO)[C@@H](O)C2(F)F)c(=O)n1 [NUC013, 5-aza-2′,2′-difluroro deoxycytidine]
Growth (%) at 10 µM [1]: 25.23% | Growth (%) at 10 µM [2]: 52.19% | Growth (%) at 10 µM [3]: 47.29% | Growth (%) at 10 µM [4]: 94.88% | inhibition of total DNMT [5]: 48.5% | Growth (%) at 10 µM [6]: 63.57% | Growth (%) at 10 µM [7]: 37.91% | Growth (%) at 10 µM [8]: 65.39% | Growth (%) at 10 µM [9]: 86.91% | GI50 [10]: 1300 nM | Growth (%) at 10 µM [11]: 7.28% | GI50 [12]: 4540 nM | Growth (%) at 10 µM [13]: 51.65% | Growth (%) at 10 µM [14]: 56.77% | Growth (%) at 10 µM [15]: 52.34% | Growth (%) at 10 µM [16]: 61.18% | Growth (%) at 10 µM [17]: 9.34% | GI50 [18]: 3000 nM | Growth (%) at 10 µM [19]: 86.06% | Growth (%) at 10 µM [20]: 51.21% | Growth (%) at 10 µM [21]: 64.95% | Growth (%) at 10 µM [22]: 67.90% | Growth (%) at 10 µM [23]: 53.63%

From PMC5620609 (Pharmaceuticals, 2017)
